In patent publication US20100022637A1, “IDENTIFICATION OF ANTI-CANCER COMPOUNDS AND COMPOUNDS FOR TREATING HUNTINGTON'S DISEASE AND METHODS OF TREATMENT THEREOF” (THE TRUSTEES OF COLUMBIA UNIVERSITY IN THE CITY OF NEW YORK, priority 2005, published 2010):
Converted amounts (≈) assume the structure as drawn. Read-outs that look alike come from different tables or passages of the source.

Legend:
in vitro = conditions: rat
N548 mutant cells = assay: cells; conditions: for Activity: nonselective hits, scale not defined; for selectivity profile of cell death rescue in panel of htt expressing cell lines: N63, N548, FL htt cell lines, in words
parental ST14A cells = assay: Cell death rescue in parental cells (selectivity counter screen); format: cell-based, rat; conditions: in words
Protocol: Cell death is indicated by a decrease in fluorescence. […] (with 5% CO2).
Identification of selective inhibitors of mutant-htt toxicity: As a first step towards probing mechanisms of action of these compounds, it was tested whether compounds selectively targeted pathways that are perturbed by mutant htt or if they suppressed a general death mechanism. Caspase activation was tested to see if it contributed to cell death in this model, since caspase-dependent pathways have been broadly implicated in cell death and in HD (Thornberry, N. and Y. Lazebnik, Science 1998, 281:1312-6; Sanchez Mejia, R and R. Friedlander Neuroscientist 2001, 7: 480-9; Hickey M. and M. Chesselet, Prog Neuropsychopharmacol Biol Psych 2003, 27: 255-65). Caspase activation was monitored via measuring the cleavage of specific fluorogenic caspase substrates. […] The decreased caspase activation in WT N548 cells was consistent with relative protection of these cells from cell death. […] Thus, the ability of a compound to rescue cell death in ST14A cells could be used as a selectivity filter to differentiate compounds that were selective for pathways selective for mutant htt induced cell death. The selectivity of rescue by a compound was determined by assessing rescue of cell death in parental ST14A cells. […]

[1] = test system: PC12 expressing Q103 exon 1 htt; assay: PC12 HD model, Alamar Blue viability; format: cell-based
Protocol: For enhanced stability the repeat portion consists of alternating CAG/CAA repeats. […] Mutant (mut) htt was induced by the ecdysone receptor agonist, tebufenozide.
For the PC12 assay, 7500 cells/well were plated in 384-well plates in 57 μl of PC12 medium with tebufenozide (1 μM). Compounds (3 μl) from daughter plates were added to the cells and incubated at 37° C. After 48 h, 20 μl of 40% Alamar Blue (Biosource, CA) in PC12 media was added per well and cells incubated for 12 h at 37° C. […] Fluorescence intensity was determined using a Packard Fusion plate reader with an excitation filter centered on 535 nm and an emission filter centered on 590 nm. Average percentage inhibition at each concentration was calculated.

| SMILES | CC50 at 3 days (in vitro; ST14A striatal cells expressing N548 mutant human htt) [µM] | EC50 (N548 mutant cells; Rattus norvegicus, ST14A, 72 h) [µM] | Activity (N548 mutant cells) | CC50 (in vitro) [µM] | selectivity profile of cell death rescue in panel of htt expressing cell lines (N548 mutant cells) | selectivity profile of cell death rescue in panel of htt expressing cell lines (N548 mutant cells; listed as Rev-1c) | maximal fold induction (N548 mutant cells; Rattus norvegicus, 72 h, read-out: N548 Mut: Max, maximum rescue expressed as fold over DMSO treated N548 mutant cells) | EC50 (N548 mutant cells; Rattus norvegicus, read-out: EC50 based on activity in N548 mutant cells) [mg/L] | rescue of cell death in parental ST14A cells (parental ST14A cells) | EC50 ([1]; Rattus norvegicus, PC-12, unit inferred) [mg/L] | PC12 rescue: percent increase in viability in compound treated cells above DMSO treated ([1]; — = no activity in the assay (footnote n.a.)) [%] |
| --- | --- | --- | --- | --- | --- | --- | --- | --- | --- | --- | --- |
| O=C(O)c1ccccc1Nc1cccc(C(F)(F)F)c1 [Flufenamic Acid, reference compound] | 40 | 5 | 1.5 |  |  |  |  |  |  |  |  |
| CC[n+]1c(-c2ccccc2)c2cc(N)ccc2c2ccc(N)cc21 [Homidium Bromide, reference compound] |  | 10 | 1.5 | 15 |  |  |  |  |  |  |  |
| CCCCCCCCCC(=O)Oc1cc(-c2ccccc2)nn1-c1cccc(F)c1 [revertin-1c] |  |  |  |  | selectively rescued cell death in all mutant htt-expressing cell lines | selectively rescues cell death in three mutant htt expressing cell lines | 2.5 | 4 | not in parental ST14A cells | 40 (≈ 97.9 µM) | 23 |
